Data as given in ChEMBL document CHEMBL3862032, “Design, Synthesis, and Cytotoxic Evaluation of Novel Tubulysin Analogues as ADC Payloads” (ACS Med Chem Lett, 2016).

Key:
[1] = Cytotoxicity against human KB 8.5 cells expressing MDR1 assessed as decrease in cell viability after 4 days by MTS assay; assay type: functional, cell-based; conditions: KB 8.5, 96 h
[2] = Cytotoxicity against MDR1 deficient human KB cells assessed as decrease in cell viability after 4 days by MTS assay; assay type: functional, cell-based; conditions: 96 h
KB = assay: Resistance ratio of IC50 for human KB 8.5 cells expressing MDR1 to IC50 for MDR1 deficient human KB cells; assay type: functional
[3] = Cytotoxicity against human MDA-MB-361/DYT2 cells assessed as decrease in cell viability after 4 days by MTS assay; assay type: functional, cell-based; conditions: MDA-MB-361, 96 h
[4] = Cytotoxicity against human NCI-N87 cells assessed as decrease in cell viability after 4 days by MTS assay; assay type: functional, cell-based; conditions: NCI-N87, 96 h

| SMILES | IC50 [1] | IC50 [2] | Ratio IC50 (KB) | IC50 [3] | IC50 [4] |
| --- | --- | --- | --- | --- | --- |
| CC[C@H](C)[C@H](NC(=O)[C@H]1CCCCN1C)C(=O)N(C)[C@H](C[C@@H](OC(C)=O)c1nc(C(=O)N[C@H](CNS(C)(=O)=O)Cc2ccccc2)cs1)C(C)C | 31.7 nM | 0.89 nM | 36 | 0.27 nM | 0.47 nM |
| CC[C@H](C)[C@H](NC(=O)[C@@]1(C)CCCN1C)C(=O)N(C)[C@H](C[C@@H](OC(C)=O)c1nc(C(=O)N[C@@H](Cc2ccccc2)C[C@H](C)C(=O)O)cs1)C(C)C | 1.02 nM | 0.11 nM | 9 | 0.07 nM | 0.13 nM |
| CC[C@H](C)[C@H](NC(=O)[C@H]1CCCCN1C)C(=O)N(C)[C@H](C[C@@H](OC(C)=O)c1nc(C(=O)N[C@@H](Cc2ccccc2)C[C@H](C)C(=O)OC)cs1)C(C)C | 0.7 nM | 0.22 nM | 3 | 0.22 nM | 0.32 nM |
| CC[C@H](C)[C@H](NC(=O)[C@@]1(C)CCCN1C)C(=O)N(C)[C@H](C[C@@H](O)c1nc(C(=O)N[C@@H](Cc2ccc(N)cc2)C[C@H](C)C(=O)O)cs1)C(C)C | > 1000 nM | 769 nM |  | > 1000 nM | > 1000 nM |
| CC[C@H](C)[C@H](NC(=O)[C@@]1(C)CCCN1C)C(=O)N(C)[C@H](C[C@@H](OC(C)=O)c1nc(C(=O)N[C@@H](Cc2ccccc2)[C@@H](O)C(=O)OC)cs1)C(C)C | 28.4 nM | 6.28 nM | 5 | 6.09 nM | 9.91 nM |
| CC[C@H](C)[C@H](NC(=O)[C@@]1(C)CCCN1)C(=O)N(C)[C@H](C[C@@H](OC(C)=O)c1nc(C(=O)N[C@@H](Cc2ccccc2)C[C@H](C)C(=O)OC)cs1)C(C)C | 179 nM | 18.6 nM | 9 | 24 nM | 59 nM |
| CC[C@H](C)[C@H](NC(=O)[C@@]1(C)CCCN1C)C(=O)N(C)[C@H](C[C@@H](OC(C)=O)c1nc(C(=O)N[C@@H](Cc2ccccc2)c2nccs2)cs1)C(C)C | 104 nM | 37.9 nM | 3 | 22 nM | 29.5 nM |
| CC[C@H](C)[C@H](NC(=O)C(C)(C)N(C)C)C(=O)N(C)[C@H](C[C@@H](OC(C)=O)c1nc(C(=O)N[C@@H](Cc2ccccc2)C[C@H](C)C(=O)OC)cs1)C(C)C | 53.9 nM | 4.68 nM | 11 | 3.37 nM | 9.76 nM |
| CC[C@H](C)[C@H](NC(=O)[C@H]1CCCCN1C)C(=O)N(C)[C@H](C[C@@H](OC(C)=O)c1nc(C(=O)N[C@@H](Cc2ccccc2)C[C@H](C)C(=O)O)cs1)C(C)C | 1.1 nM | 0.33 nM | 3 | 0.13 nM | 0.46 nM |
| CC[C@H](C)[C@H](NC(=O)[C@H]1CCCN1C)C(=O)N(C)[C@H](C[C@@H](OC(C)=O)c1nc(C(=O)N[C@@H](Cc2ccccc2)C[C@H](C)C(=O)OC)cs1)C(C)C | 7.88 nM | 1.26 nM | 6 | 0.67 nM | 2.88 nM |
| CC[C@H](C)[C@H](NC(=O)[C@@]1(C)CCCN1C)C(=O)N(C)[C@H](C[C@@H](OC(C)=O)c1nc(C(=O)N[C@@H](Cc2ccccc2)C[C@H](C)C(=O)OC)cs1)C(C)C | 5.52 nM | 1.04 nM | 5 | 0.45 nM | 0.89 nM |
| CC[C@H](C)[C@H](NC(=O)[C@@]1(C)CCCN1C)C(=O)N(C)[C@H](C[C@@H](OC(C)=O)c1nc(C(=O)N[C@H](CNS(C)(=O)=O)Cc2ccccc2)cs1)C(C)C | 93.7 nM | 5.32 nM | 18 | 4.9 nM | 9.24 nM |
| CC[C@H](C)[C@H](NC(=O)[C@@]1(C)CCCN1C)C(=O)N(C)[C@H](C[C@@H](OC(C)=O)c1nc(C(=O)N[C@@H](Cc2ccc(N)cc2)C[C@H](C)C(=O)O)cs1)C(C)C | 2.77 nM | 0.5 nM | 5 | 0.9 nM | 1.11 nM |
| CCNC(=O)O[C@H](C[C@H](C(C)C)N(C)C(=O)[C@@H](NC(=O)[C@@]1(C)CCCN1C)[C@@H](C)CC)c1nc(C(=O)N[C@@H](Cc2ccc(N)cc2)C[C@H](C)C(=O)O)cs1 | 4.53 nM | 0.77 nM | 6 | 1.94 nM | 1.92 nM |
| CC[C@H](C)[C@H](NC(=O)[C@@]1(C)CCCN1C)C(=O)N(C)[C@H](C[C@@H](OC(C)=O)c1nc(C(=O)NCCc2cscn2)cs1)C(C)C | 198 nM | 86.6 nM | 2 | 33.2 nM | 61.3 nM |
| CC[C@H](C)[C@H](NC(=O)[C@H]1CCCCN1C)C(=O)N(C)[C@H](C[C@@H](OC(C)=O)c1nc(C(=O)N[C@@H](Cc2ccccc2)[C@@H](O)C(=O)OC)cs1)C(C)C | 13.4 nM | 1.21 nM | 11 | 0.27 nM | 1 nM |
| CC[C@H](C)[C@H](NC(=O)[C@@]1(C)CCCN1C)C(=O)N(C)[C@H](C[C@@H](OC(C)=O)c1nc(C(=O)NCCn2nnc3ccccc32)cs1)C(C)C | 46.3 nM | 11.5 nM | 4 | 9.05 nM | 11.8 nM |
| CC[C@H](C)[C@H](NC(=O)[C@H]1CCCCN1C)C(=O)N(C)[C@H](C[C@@H](OC(C)=O)c1nc(C(=O)N[C@@H](Cc2ccccc2)C(=O)N2CCCCC2)cs1)C(C)C | 20.1 nM | 3.71 nM | 5 | 6.32 nM | 6.75 nM |
| CC[C@H](C)[C@H](NC(=O)[C@H]1CCCCN1C)C(=O)N(C)[C@H](C[C@@H](OC(C)=O)c1nc(C(=O)NCCn2nnc3ccccc32)cs1)C(C)C | 15.6 nM | 1.44 nM | 11 | 0.83 nM | 1.23 nM |
| CC[C@H](C)[C@H](NC(=O)[C@H]1CCCCN1)C(=O)N(C)[C@H](C[C@@H](OC(C)=O)c1nc(C(=O)N[C@@H](Cc2ccccc2)C[C@H](C)C(=O)OC)cs1)C(C)C | 141 nM | 2.6 nM | 54 | 1.68 nM | 7.74 nM |
| CC[C@H](C)[C@H](NC(=O)[C@H]1CCCCN1C)C(=O)N(C)[C@H](C[C@@H](OC(C)=O)c1nc(C(=O)N[C@@H](Cc2ccccc2)CN2CCOCC2)cs1)C(C)C | 5.47 nM | 1.02 nM | 5 | 0.31 nM | 0.49 nM |
| CC[C@H](C)[C@H](NC(=O)[C@H]1CCCCN1C)C(=O)N(C)[C@H](C[C@@H](OC(C)=O)c1nc(C(=O)N[C@@H](Cc2ccccc2)c2nccs2)cs1)C(C)C | 13.5 nM | 3.57 nM | 4 | 0.95 nM | 3 nM |
| CC[C@H](C)[C@H](NC(=O)[C@H]1CCCCN1C)C(=O)N(C)[C@H](C[C@@H](OC(C)=O)c1nc(C(=O)NCCc2cscn2)cs1)C(C)C | 17.5 nM | 3.69 nM | 5 | 6.45 nM | 9 nM |
| CC[C@H](C)[C@H](NC(=O)[C@H](NC)C(C)C)C(=O)N(C)[C@H](C[C@@H](OC(C)=O)c1nc(C(=O)N[C@@H](Cc2ccccc2)C[C@H](C)C(=O)OC)cs1)C(C)C | 33.6 nM | 1.76 nM | 19 | 1.06 nM | 0.89 nM |
| CC[C@H](C)[C@H](NC(=O)[C@@H]1C[C@@H](O)CN1C)C(=O)N(C)[C@H](C[C@@H](OC(C)=O)c1nc(C(=O)N[C@@H](Cc2ccccc2)C[C@H](C)C(=O)OC)cs1)C(C)C | 788 nM | 22.6 nM | 35 | 26.9 nM | 106 nM |
| CC[C@H](C)[C@H](NC(=O)[C@@]1(C)CCCN1C)C(=O)N(C)[C@H](C[C@@H](OC(C)=O)c1nc(C(=O)NC(CO)Cc2ccccc2)cs1)C(C)C (mixture of isomers) | 69.2 nM | 18 nM | 4 | 16.5 nM | 29.1 nM |
| CC[C@H](C)[C@H](NC(=O)[C@@]1(C)CCCN1C)C(=O)N(C)[C@H](C[C@@H](OC(C)=O)c1nc(C(=O)N[C@@H](Cc2ccccc2)C(O)c2nccs2)cs1)C(C)C (mixture of isomers) | 39.4 nM | 8.64 nM | 5 | 6.39 nM | 11.1 nM |
